Test results: ChEMBL document CHEMBL1149037, “Vanicosides A and B, protein kinase C inhibitors from Polygonum pensylvanicum” (J Nat Prod, 1994)
In brackets after ≈: the same amount, converted by molar mass. Activity calls are given as the source filed them. The rule behind the calls is not given here.

Legend:
[1] = Inhibition of PKC
MCF = assay: Cytotoxicity against human MCF cells; format: functional, cell-based

IC50 [1] | SMILES | Activity (MCF)
> 50 µg/mL | COc1cc(/C=C/C(=O)OC[C@H]2O[C@@H](O[C@]3(COC(=O)/C=C/c4ccc(OC(C)=O)cc4)O[C@H](COC(=O)/C=C/c4ccc(OC(C)=O)cc4)[C@@H](OC(C)=O)[C@@H]3OC(=O)/C=C/c3ccc(OC(C)=O)cc3)[C@H](OC(C)=O)[C@@H](OC(C)=O)[C@@H]2OC(C)=O)ccc1OC(C)=O | –
44 µg/mL (≈ 44 µM) | COc1cc(/C=C/C(=O)OC[C@H]2O[C@@H](O[C@]3(COC(=O)/C=C/c4ccc(O)cc4)O[C@H](COC(=O)/C=C/c4ccc(O)cc4)[C@@H](O)[C@@H]3OC(=O)/C=C/c3ccc(O)cc3)[C@H](OC(C)=O)[C@@H](O)[C@@H]2O)ccc1O [VANICOSIDE A] | Active
31 µg/mL (≈ 32.4 µM) | COc1cc(/C=C/C(=O)OC[C@H]2O[C@H](O[C@]3(COC(=O)/C=C/c4ccc(O)cc4)O[C@H](COC(=O)/C=C/c4ccc(O)cc4)[C@@H](O)[C@@H]3OC(=O)/C=C/c3ccc(O)cc3)[C@H](O)[C@@H](O)[C@@H]2O)ccc1O [VANICOSIDE B] | Active
